Measurements as given in ChEMBL document CHEMBL4400563, “Discovery of a small molecule RXFP3/4 agonist that increases food intake in rats upon acute central administration” (Bioorg Med Chem Lett, 2019).
pEC50: −log10 of the molar value. Activity calls are given as the source filed them. The rule behind the calls is not given here.

Key:
[1] = target: T1, Relaxin-3 receptor 1 (Homo sapiens) (UniProt Q9NSD7); assay: Agonist activity at human RXFP3 expressed in CHOK1 cells assessed as inhibition of forskolin-stimulated intracellular cAMP accumulation preincubated for 30 mins followed by forskolin-stimulation and measured after 30 mins by HTRF assay relative to relaxin-3; assay type: functional, cell-based
T1 sequence (whole entry): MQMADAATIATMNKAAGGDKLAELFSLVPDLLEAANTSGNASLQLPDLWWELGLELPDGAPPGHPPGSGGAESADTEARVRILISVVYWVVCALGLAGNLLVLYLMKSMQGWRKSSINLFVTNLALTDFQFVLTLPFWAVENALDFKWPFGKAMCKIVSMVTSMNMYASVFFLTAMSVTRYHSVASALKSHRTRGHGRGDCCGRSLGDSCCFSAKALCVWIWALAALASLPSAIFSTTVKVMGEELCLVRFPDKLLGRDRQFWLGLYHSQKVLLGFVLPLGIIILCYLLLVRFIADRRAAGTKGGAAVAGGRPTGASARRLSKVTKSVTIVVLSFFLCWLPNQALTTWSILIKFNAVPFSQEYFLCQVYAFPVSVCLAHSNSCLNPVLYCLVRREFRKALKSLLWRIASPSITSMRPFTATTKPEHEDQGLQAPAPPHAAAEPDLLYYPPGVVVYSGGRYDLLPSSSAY

Relaxin-3 receptor 1 = target: T2, Relaxin-3 receptor 1 (Homo sapiens, UniProt Q9NSD7); assay: Agonist activity at human RXFP3 expressed in CHOK1 cells assessed as inhibition of forskolin-stimulated intracellular cAMP accumulation preincubated for 30 mins followed by forskolin-stimulation and measured after 30 mins by HTRF assay; assay type: functional, cell-based
T2 sequence (Q9NSD7 whole entry): T1 sequence (whole entry)

Relaxin-3 receptor 2 [2] = target: T3, Relaxin-3 receptor 2 (Homo sapiens, UniProt Q8TDU9); assay: Agonist activity at human RXFP4 expressed in CHOK1 cells assessed as inhibition of forskolin-stimulated intracellular cAMP accumulation preincubated for 30 mins followed by forskolin-stimulation and measured after 30 mins by HTRF assay; assay type: functional, cell-based
T3 sequence (Q8TDU9 whole entry): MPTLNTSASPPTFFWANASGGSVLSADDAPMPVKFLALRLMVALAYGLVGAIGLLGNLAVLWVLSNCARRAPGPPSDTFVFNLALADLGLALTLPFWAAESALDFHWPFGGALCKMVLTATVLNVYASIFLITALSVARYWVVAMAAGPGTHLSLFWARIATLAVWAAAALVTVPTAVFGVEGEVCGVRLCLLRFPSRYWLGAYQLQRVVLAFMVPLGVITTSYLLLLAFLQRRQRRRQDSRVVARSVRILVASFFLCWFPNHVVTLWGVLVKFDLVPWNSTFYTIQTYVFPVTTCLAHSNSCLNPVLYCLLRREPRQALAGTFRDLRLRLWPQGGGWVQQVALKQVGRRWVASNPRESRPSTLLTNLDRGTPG

Relaxin-3 receptor 2 [3] = target: T3, Relaxin-3 receptor 2; assay: Agonist activity at human RXFP4 expressed in CHOK1 cells assessed as inhibition of forskolin-stimulated intracellular cAMP accumulation preincubated for 30 mins followed by forskolin-stimulation and measured after 30 mins by HTRF assay relative to relaxin-3; assay type: functional, cell-based
Cricetulus griseus [4] = species: Cricetulus griseus; assay: Induction of p38 MAPK phosphorylation CHOK1 cells at 5 uM by Western blot analysis
CHO-K1 [5] = assay: Effect on total JNK protein levels in CHOK1 cells at 5 uM by Western blot analysis; assay type: ADME, cell-based, Cricetulus griseus; conditions: chinese hamster, cho-k1, 5 µM
[6] = target: Relaxin-3 receptor 1/2 (Homo sapiens) (UniProt Q9NSD7+Q8TDU9); assay: Agonist activity at human RXFP3/4 in human U2OS cells assessed as induction of beta-arrestin recruitment incubated for 1 hr by chemiluminescence based PathHunter beta-arrestin assay relative to relaxin-3; assay type: cell-based
Sequence of Relaxin-3 receptor 1/2 (Homo sapiens) (Q8TDU9 whole entry, looked up, one chain of several): as the sequence (Q8TDU9 whole entry) above

[7] = target: T1, Relaxin-3 receptor 1 (Homo sapiens); assay: Agonist activity at human RXFP3 expressed in CHOK1 cells assessed as induction of ERK1/2 phosphorylation at 5 uM by Western blot analysis; assay type: cell-based
Rattus norvegicus [8] = assay: Induction of food intake in Sprague-Dawley rat at 1 umol, icv after 24 hrs (reference value: 24.1 +/- 2.7g); assay type: functional
[9] = target: T1, Relaxin-3 receptor 1 (Homo sapiens); assay: Agonist activity at human RXFP3 expressed in CHOK1 cells assessed as induction of p38 MAPK phosphorylation at 5 uM by Western blot analysis; assay type: cell-based
Cricetulus griseus [10] = species: Cricetulus griseus; assay: Induction of JNK phosphorylation CHOK1 cells at 5 uM by Western blot analysis
Rattus norvegicus [11] = assay: Induction of food intake in Sprague-Dawley rat at 1 umol, icv after 4 hrs (reference value: 2.5 +/- 0.6g); assay type: functional
[12] = target: T1, Relaxin-3 receptor 1 (Homo sapiens); assay: Agonist activity at human RXFP3 expressed in CHOK1 cells assessed as induction of JNK phosphorylation at 5 uM by Western blot analysis; assay type: cell-based
CHO-K1 [13] = assay: Effect on total ERK1/2 protein levels in CHOK1 cells at 5 uM by Western blot analysis; assay type: ADME, cell-based, Cricetulus griseus; conditions: chinese hamster, cho-k1, 5 µM
Cricetulus griseus [14] = species: Cricetulus griseus; assay: Induction of ERK1/2 phosphorylation CHOK1 cells at 5 uM by Western blot analysis
Rattus norvegicus [15] = assay: Induction of food intake in satiated Sprague-Dawley rat at 1 umol, icv after 0 to 2 hrs (reference value: 1.7 +/- 0.5g); assay type: functional
CHO-K1 [16] = assay: Effect on total p38 MAPK protein levels in CHOK1 cells at 5 uM by Western blot analysis; assay type: ADME, cell-based, Cricetulus griseus; conditions: chinese hamster, cho-k1, 5 µM
Relaxin-3 receptor 2 [17] = target: T3, Relaxin-3 receptor 2; assay: Agonist activity at human RXFP4 expressed in CHOK1 cell membranes assessed as stimulation of [35S]-GTPgammaS binding after 3 hrs by scintillation counting method; assay type: functional

| Emax [1] | pEC50 (Relaxin-3 receptor 1) | pEC50 (Relaxin-3 receptor 2 [2]) | Emax (Relaxin-3 receptor 2 [3]) | Activity (Cricetulus griseus [4]) | Emax [6] | Activity [7] | Activity [9] | Activity (Cricetulus griseus [10]) | Activity [12] | Activity (Cricetulus griseus [14]) | pEC50 (Relaxin-3 receptor 2 [17]) | Compound | Activity (CHO-K1 [5]) | Activity (Rattus norvegicus [8]) | Activity (Rattus norvegicus [11]) | Activity (CHO-K1 [13]) | Activity (Rattus norvegicus [15]) | Activity (CHO-K1 [16]) |
| --- | --- | --- | --- | --- | --- | --- | --- | --- | --- | --- | --- | --- | --- | --- | --- | --- | --- | --- |
| 55.7% | 5.89 | 7.00 | 113% | – | – | – | – | – | – | – | – | COc1cc(C)c2[nH]cc(/C=N/NC(=N)NCCc3ccc(Cl)cc3)c2c1 | – | – | – | – | – | – |
| 105% | – | 8.70 | 100% | inactive | 79.2% | Active | inactive | inactive | Active | inactive | 7.96 | CCc1cc(O)cc2c(/C=N/NC(=N)NCCc3ccc(Cl)cc3)c[nH]c12 | Non-Toxic | 35.3 g | 7.1 g | Non-Toxic | 3.5 g | Non-Toxic |
| 77.7% | 6.10 | 8.40 | 113% | – | – | – | – | – | – | – | – | Cc1cc(O)cc2c(/C=N/NC(=N)NCCc3ccc(Cl)c(Cl)c3)c[nH]c12 | – | – | – | – | – | – |
| – | – | 7.24 | 99 to 99.2% | – | – | – | – | – | – | – | – | COc1cc(C)c2[nH]cc(/C=N/NC(=N)NCCc3ccc(Cl)c(Cl)c3)c2c1 | – | – | – | – | – | – |
